Data: patent publication US6613317B1, “Volatile attractants for diabrotica species” (priority 1988, dated 2003)
Marks after values point to notes of the source that are not given here.

How the values were obtained:
D. barberi [1] = assay: Sticky trap attraction in prairie habitat, Trelease Woods (Example 2); assay type: in vivo, Diabrotica barberi; settings: 100 mg per trap, n = 4
Outline: (§1)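 Lure-dosed cotton wicks (solids in acetone; untreated controls) on TangleTrap-coated cartons atop 1 m posts, four replicates 10 m apart in relict prairie, mid-August over two years. Read-out: mean beetles caught after 24-h; log-transformed ANOVA with Duncan's multiple range test.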

D. cristata = assay: as above; assay type: in vivo, Diabrotica cristata; settings: 100 mg per trap, n = 4
Outline: as §1

D. v. virgifera [2] = assay: as above; assay type: in vivo, Diabrotica virgifera virgifera; settings: 100 mg per trap, n = 4
Outline: as §1

D. u. howardi [3] = assay: as above; assay type: in vivo, Diabrotica undecimpunctata howardi; settings: 100 mg per trap, n = 4
Outline: as §1

D. barberi [4] = assay: Sticky trap attraction along hybrid corn, Pomology South Farms (Example 2); assay type: in vivo, Diabrotica barberi; settings: 100 mg per trap, n = 4
Protocol: (§2) The candidate lures in all experiments were purchased commercially and exceeded 98% purity. The test chemicals were applied by capillary micropipettes to cotton dental wicks which were attached to the tops of 1.0 liter cylindrical paper cartons covered with TangleTrap™ (Tanglefoot Co., Grand Rapids, Mich.). The sticky trap techniques used were as described in Example 1. Cinnamyl alcohol and para-methoxycinnamaldehyde, which are solids, were dissolved in glass-distilled acetone prior to dosing the cotton wicks. All treatments were applied at a dosage of 100 mg per trap. 1,2,4-trimethoxybenzene, indole, and trans-cinnamaldehyde were mixed in a ratio of 1:1:1, by weight, immediately prior to dosing the cotton wicks. Control traps had untreated cotton wicks. Four replicates of treated and untreated traps were randomly positioned 10 meters apart on top of 1 m high posts along the border of a eight foot wide strip cut through the middle of a 4.05 ha relict prairie at Trelease Woods (ca. two miles northeast of Urbana, Ill.). The field consisted primarily of Andropogon gerardii Vitman (big bluestem) and a variety of composites. The tests were conducted in mid-August of two years and were timed to coincide with the presence of D. cristata and D. barberi adults in the flower heads of Canada thistle (Carduus arvensis Robson). In the second year, several new attractants of D. v. virgifera and D. barberi were tested in Trelease Woods and along the edge of a 0.8 ha field of hybrid corn located at the Pomology South Farms, Urbana, Ill. Attraction of Diabrotica species to the various lures was measured by the mean number of beetles caught after 24-h. On one date in late August of the first year, D. cristata and D. barberi were removed from the traps and sexed in the laboratory. The significance of treatments in all tests was determined by an analysis of variance and the individual means were separated by Duncan's multiple range test (Statistical Package for Social Science, Nie, et al., SPSS: statistical package for the social sciences, 2nd ed. McGraw-Hill, New York (1975). Data were logarithmically transformed for statistical analysis and the means and standard deviations are presented for the untransformed data.

D. v. virgifera [5] = assay: as above; assay type: in vivo, Diabrotica virgifera virgifera; settings: 100 mg per trap, n = 4
Protocol: as §2

D. u. howardi [6] = assay: as above; assay type: in vivo, Diabrotica undecimpunctata howardi; settings: 100 mg per trap, n = 4
Protocol: as §2

[7] = system: western corn rootworm (WCR) adults; assay: Sticky trap attraction in corn, estragole analogues (Example 3); assay type: in vivo, Diabrotica virgifera virgifera; settings: for Mean number of WCR adults per sticky trap (±standard deviation) after 24 hours / Mean number of WCR (±standard deviation) per sticky trap after 24 hours / Relative percent activity as compared with the highest mean in the column (WCR) / Mean number of WCR per sticky trap (±standard deviation) after 24 hours: 100 mg per trap; for Mean number of WCR adults per sticky trap (±standard deviation) after 24 hours / Mean number of WCR (±standard deviation) per sticky trap after 24 hours / Mean number of WCR per sticky trap (±standard deviation) after 24 hours: n = 4
Outline: (§3)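 Cotton wicks dosed with 100 mg or 100 μL attractant per trap on TangleTrap-coated cartons, four replicates 10 m apart on 1 m posts at field edges of hybrid or sweet corn. Mean beetles caught after ~24 h; log-transformed ANOVA with Duncan's test, P=0.05.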

[8] = system: southern corn rootworm (SCR) adults; assay: as above; assay type: in vivo, Diabrotica undecimpunctata howardi; settings: 100 mg per trap, n = 4
Outline: as §3

[9] = system: northern corn rootworm (NCR) adults; assay: as above; assay type: in vivo, Diabrotica barberi; settings: 100 mg per trap, n = 4
Protocol: (§4) Test chemicals were applied by capillary micropipettes to cotton dental wicks that were attached to tops of 1.0 liter cylindrical paper cartons covered with TangleTrap™, Grand Rapids, Mich. The trapping techniques used were as previously described in Example 1. Cinnamyl alcohol, 4-methoxycinnamaldehyde, cinnamyl acetate, and 4-(4′methoxyphenyl)-3-butene-2-one which are solids at ambient temperature were prepared as standard w/v solutions in acetone prior to dosing the cotton wicks. All treatments were made at a dosage of 100 mg or 100 μL of attractant per trap. Control traps had untreated wicks. Four replicates of treated and untreated traps were positioned randomly 10 meters apart on top of 1 m high posts along the edges of 25-50 ha. fields of hybrid corn (Zea mays), infested with adult NCR, SCR, and WCR beetles. Several experiments detailed in the Tables were made in a 0.4 ha plot of sweet corn (Illini X-tra Sweet).
(§5) Attraction of Diabrotica species adults of the sticky traps was measured by the mean number of beetles caught after 1 day (ca. 24 hours) exposure. The significance of the treatments was determined by analysis of variance and the individual means were separated by Duncan's multiple range test (Statistical Package for the Social Sciences, Nie, et al., 2nd. ed. McGraw-Hill, New York (1975). The data was logarithmically transformed for statistical analysis. Means and standard deviations are presented for the untransformed data. Significance levels were set at P=0.05 for all statistical analyses.

[10] = system: northern corn rootworm (NCR); assay: Sticky trap attraction in corn, phenylethanol analogues (Example 6); assay type: in vivo, Diabrotica barberi; settings: 100 mg per trap, four replicates, 24 hour
Protocol: as §4, with “chemicals (purchased from Aldrich Chemical Co.; Milwaukee, Wis.)” for “chemicals”, “Unless otherwise indicated, all” for “Cinnamyl alcohol, 4-methoxycinnamaldehyde, cinnamyl acetate, and 4-(4′methoxyphenyl)-3-butene-2-one which are solids at ambient temperature were prepared as standard w/v solutions in acetone prior to dosing the cotton wicks. All”
as §5

[11] = system: western corn rootworm (WCR); assay: as above; assay type: in vivo, Diabrotica virgifera virgifera; settings: 100 mg per trap, four replicates, 24 hour
Protocol: as §4, with “chemicals (purchased from Aldrich Chemical Co.; Milwaukee, Wis.)” for “chemicals”, “Unless otherwise indicated, all” for “Cinnamyl alcohol, 4-methoxycinnamaldehyde, cinnamyl acetate, and 4-(4′methoxyphenyl)-3-butene-2-one which are solids at ambient temperature were prepared as standard w/v solutions in acetone prior to dosing the cotton wicks. All”
as §5

WCR = settings: in vivo; cited from earlier work
[12] = system: western corn rootworm (WCR) adults; settings: in vivo; cited from earlier work

Compound	Mean number of D. barberi per day (±standard deviation) (D. barberi [1]; August 11, 1987)	Mean number of D. cristata per day (±standard deviation) (D. cristata; August 11, 1987)	Mean number of D. v. virgifera per day (±standard deviation) (D. v. virgifera [2]; August 11, 1987)	Mean number of D. u. howardi per day (±standard deviation) (D. u. howardi [3]; August 11, 1987)	Mean number of D. barberi per stick trap per day (±standard deviation) in corn (D. barberi [4]; August 7)	Mean number of D. v. virgifera per stick trap per day (±standard deviation) in corn (D. v. virgifera [5]; August 7)	Mean number of D. u. howardi per stick trap per day (±standard deviation) in corn (D. u. howardi [6]; August 7)	Mean number of WCR adults per sticky trap (±standard deviation) after 24 hours ([7]; August 4 second year)	Mean number of WCR adults per sticky trap (±standard deviation) after 24 hours ([7]; August 5 first year)	Mean number of WCR (±standard deviation) per sticky trap after 24 hours ([7]; August 7 (Table 11))	Mean number of SCR adults per sticky trap (±standard deviation) after 24 hours ([8]; August 4 second year)	Mean number of SCR adults per sticky trap (±standard deviation) after 24 hours ([8]; August 5 first year)	Mean number of SCR (±standard deviation) per sticky trap after 24 hours ([8]; August 7 (Table 11))	Mean number of NCR (±standard deviation) per sticky trap after 24 hours ([9]; August 7 (Table 11))	LR for WCR, most effective volatile attractants yet identified (WCR)	further results
COc1ccc(C=CC=O)cc1 [XI, 4-methoxycinnamaldehyde]	1.0 ± 0.8^a per day	11.0 ± 6.7^b per day	8.5 ± 5.3^b per day	0.3 ± 0.5^a per day	0.3 ± 0.5^a per stick trap per day	375.0 ± 50.0^d per stick trap per day	1.5 ± 2.4^a per stick trap per day	204.7 ± 34.6^e per sticky trap	143.7 ± 75.3^e per sticky trap	375.0 ± 50.0^c per sticky trap	9.0 ± 6.5^b per sticky trap	42.7 ± 27.6^b per sticky trap	1.5 ± 2.4^a per sticky trap	0.0^a per sticky trap	0.03 mg	Mean number of D. barberi per stick trap per day (±standard deviation) in corn (D. barberi [4]; August 18): 1.0 ± 0.8^a per stick trap per day; Mean number of D. v. virgifera per stick trap per day (±standard deviation) in corn (D. v. virgifera [5]; August 18): 178.8 ± 32.0^c per stick trap per day; Mean number of D. u. howardi per stick trap per day (±standard deviation) in corn (D. u. howardi [6]; August 18): 0.0^a per stick trap per day; period over which treated wicks remained highly attractive to WCR ([7]; 100 mg on wick, transferred daily to fresh traps, August sunlight, two heavy rainstorms): ≥ 16 days; Mean number of WCR (±standard deviation) per sticky trap after 24 hours ([7]; August 18 (Table 11)): 178.7 ± 31.9^b per sticky trap; Mean number of WCR adults per sticky trap (±standard deviation) after 24 hours ([7]; September 11): 22.2 ± 23.1^b per sticky trap; effectiveness relative to previously described WCR attractants (indole, estragole) ([7]; by LR): about 100 fold; limit of response (LR) for attraction of WCR adults in corn ([7]; on cotton wicks, logarithmically decreasing amounts): ~0.03 mg; Mean number of SCR (±standard deviation) per sticky trap after 24 hours ([8]; August 18 (Table 11)): 0.0^a per sticky trap; Mean number of SCR adults per sticky trap (±standard deviation) after 24 hours ([8]; September 11): 1.5 ± 1.3^ab per sticky trap; Mean number of NCR (±standard deviation) per sticky trap after 24 hours ([9]; August 18 (Table 11)): 1.0 ± 0.8^a per sticky trap; Mean number of NCR per trap (± standard deviation) ([10]; Table 15): 6.4 ± 4.9a per trap; Mean number of NCR per trap (± standard deviation) ([10]; Table 17): 2.5 ± 1.9a per trap; Mean number of WCR per trap (±standard deviation) ([11]; Table 15): 567.5 ± 111.6b per trap; Mean number of WCR per trap (± standard deviation), column WCW ([11]; Table 17): 360.2 ± 181.3c per trap
C=CCc1ccc(OC)cc1 [I, 4-methoxy-1-allylbenzene]	1.0 ± 2.0^a per day	13.5 ± 4.1^b per day	0.3 ± 0.5^a per day	0.3 ± 0.5^a per day	2.3 ± 2.1^ab per stick trap per day	64.0 ± 15.9^b per stick trap per day	7.0 ± 4.5^a per stick trap per day	84.5 ± 19.7^d per sticky trap	17.2 ± 7.8^c per sticky trap	64.0 ± 15.9^b per sticky trap	7.2 ± 5.1^a per sticky trap	9.2 ± 5.6^a per sticky trap	7.0 ± 4.5^a per sticky trap	2.2 ± 2.1^ab per sticky trap	3 mg	Mean number of D. barberi per day (±standard deviation) (D. barberi [1]; August 14, 1987): 4.0 ± 0.8^b per day; Mean number of D. barberi per sticky trap per day (±standard deviation) (D. barberi [1]; August 27, first year): 6.5 ± 3.7^b per sticky trap per day; Mean number of D. cristata per day (±standard deviation) (D. cristata; August 14, 1987): 13.0 ± 4.2^c per day; Mean number of D. cristata per sticky trap per day (±standard deviation) (D. cristata; August 27, first year): 5.3 ± 1.0^b per sticky trap per day; Mean number of D. v. virgifera per day (±standard deviation) (D. v. virgifera [2]; August 14, 1987): 0.3 ± 0.5^a per day; Mean number of D. v. virgifera per sticky trap per day (±standard deviation) (D. v. virgifera [2]; August 27, first year): 0 per sticky trap per day; Mean number of D. u. howardi per day (±standard deviation) (D. u. howardi [3]; August 14, 1987): 0.5 ± 0.7^a per day; Mean number of D. u. howardi per sticky trap per day (±standard deviation) (D. u. howardi [3]; August 27, first year): 3.0 ± 2.8^a per sticky trap per day; Relative percent activity as compared with the highest mean in the column (WCR) ([7]; August 29): 100%; Mean number of WCR per sticky trap (±standard deviation) after 24 hours ([7]; August 29): 147.2 ± 46.5 per sticky trap; Relative percent activity as compared with the highest mean in the column (WCR) ([7]; July 30): 100%; Mean number of WCR per sticky trap (±standard deviation) after 24 hours ([7]; July 30): 82.1 ± 8.6 per sticky trap; LR values for WCR attraction (literature) [12]: about 3 mg
